Tested on: monocyte to fibrocyte differentiation (PBMC)
Test: Fibrocyte differentiation assay: PBMC cultured in serum-free medium, fibrocytes enumerated by morphology
Type: cell-based, human
Conditions: for number of fibrocytes in culture: concentrations between 10 and 0.1 ng/ml; for number of fibrocytes in culture / ability to inhibit fibrocyte differentiation: PBMC in serum-free medium; for ability to inhibit fibrocyte differentiation: commercially available purified proteins, 6 days
Method: The rapid appearance of these cells, within 3 days of culture, was inhibited by human serum or plasma. To examine this process in more detail, PBMC were cultured at 5×10^5 cells per ml in serum-free medium containing increasing concentrations of human plasma for 6 days. […] The activity in the serum that inhibited fibrocyte formation was retained by a 30 kDa cutoff spin-filter (data not shown).
Plasma was fractionated by BaCl2 precipitation, heparin and ion exchange chromatography. Protein concentrations were assessed by spectrophotometry at 280 nm. Inhibition of fibrocyte differentiation was assessed by morphology. The fibrocyte inhibitory activity of a sample was defined as the reciprocal of the dilution at which it inhibited fibrocyte differentiation by 50%, when added to serum-free medium.
Serum amyloid P is a constitutive plasma protein and is closely related to CRP, the major acute phase protein in humans. […] Serum and plasma contain between 30-50 μg/ml SAP.
Cells were incubated in serum-free medium: RPMI (GibcoBRL Life, Invitrogen, Carlsbad, Calif., USA) supplemented with 10 mM HEPES (GibcoBRL/Life), 2 mM glutamine, 100 U/ml penicillin and 100 μg/ml streptomycin, 0.2% bovine serum albumin (BSA, Sigma), 5 μg/ml insulin (Sigma), 5 μg/ml iron-saturated transferrin (Sigma) and 5 ng/ml sodium selenite (Sigma). Normal human serum (Sigma), normal human plasma (Gulf Coast Regional Blood Center) or fetal calf serum (Sigma), column fractions, sera and synovial fluid from patients or purified proteins were added at the stated concentrations. Patient samples were obtained from a repository available to researchers at University of Texas Medical School at Houston. This repository keeps patient information confidential, and meets all NIH guidelines.
PBMC were cultured in 24 or 96 well tissue culture plates in 2 ml or 200 μl volumes respectively (Becton Dickinson, Franklin Lakes, N.J.) at 2.5×10^5 cells per ml in a humidified incubator containing 5% CO2 at 37° C. for the indicated times. Fibrocytes in 5 different 900 μm diameter fields of view were enumerated by morphology in viable cultures as adherent cells with an elongated spindle-shaped morphology as distinct from small lymphocytes or adherent monocytes. Alternatively cells were air dried, fixed in methanol and stained with haematoxylin and eosin (Hema 3 Stain, VWR, Houston, Tex.). Fibrocytes were counted using the above criterion and the presence of an oval nucleus. Enumeration of fibrocytes was performed on cells cultured for 6 days in flat-bottomed 96 well plates, with 2.5×10^4 cells per well. In addition, fibrocyte identity was confirmed by immunoperoxidase staining (see below). The fibrocyte inhibitory activity of a sample was defined as the reciprocal of the dilution at which it inhibited fibrocyte differentiation by 50%, when added to serum-free medium.
Experiments have shown that IL-4 and IL-13 are capable of promoting fibrocyte differentiation in vitro. Specifically, PBMC were cultured in serum-free medium in the presence of IL-4 or IL-13. […] Therefore a bandage or other topical agarose formulation as described above additionally containing IL-4 and/or IL-13 is expected to show further improvements in wound healing.

| Molecule | number of fibrocytes in culture | ability to inhibit fibrocyte differentiation | further results |
| --- | --- | --- | --- |
| IL-13: cytokine, activator of the fibrotic response | enhanced the number of fibrocytes | – | – |
| SAP: commercially available purified human serum amyloid P (Calbiochem), a pentraxin plasma protein | – | able to inhibit fibrocyte differentiation | activity from dilution curve (commercially available SAP): approximately 6.6×10^3 units/mg; concentration of maximal inhibitory activity (commercially available purified SAP): 1 µg/mL; SAP concentration at the plasma dilution at which fibrocytes began to appear, comparable to the threshold concentration of purified SAP (worked out from 0.5% plasma and 30-50 μg/ml SAP): 0.15 to 0.25 µg/mL |
| IL-4: cytokine, activator of the fibrotic response (protein, UniProt P05112 25-153, looked up) Interleukin-4: HKCDITLQEIIKTLNSLTEQKTLCTELTVTDIFAASKNTTEKETFCRAATVLRQFYSHHEKDTRCLGATAQQFHRHKQLIRFLKRLDRNLWGLAGLNSCPVKEANQSTLENFLERLKTIMREKYSKCSS | enhanced the number of fibrocytes | – | – |
| Protein S: purified human protein S, vitamin K-dependent anticoagulant (Calbiochem) (protein, UniProt P07225 42-676, looked up) Vitamin K-dependent protein S: ANSLLEETKQGNLERECIEELCNKEEAREVFENDPETDYFYPKYLVCLRSFQTGLFTAARQSTNAYPDLRSCVNAIPDQCSPLPCNEDGYMSCKDGKASFTCTCKPGWQGEKCEFDINECKDPSNINGGCSQICDNTPGSYHCSCKNGFVMLSNKKDCKDVDECSLKPSICGTAVCKNIPGDFECECPEGYRYNLKSKSCEDIDECSENMCAQLCVNYPGGYTCYCDGKKGFKLAQDQKSCEVVSVCLPLNLDTKYELLYLAEQFAGVVLYLKFRLPEISRFSAEFDFRTYDSEGVILYAESIDHSAWLLIALRGGKIEVQLKNEHTSKITTGGDVINNGLWNMVSVEELEHSISIKIAKEAVMDINKPGPLFKPENGLLETKVYFAGFPRKVESELIKPINPRLDGCIRSWNLMKQGASGIKEIIQEKQNKHCLVTVEKGSYYPGSGIAQFHIDYNNVSSAEGWHVNVTLNIRPSTGTGVMLALVSGNNTVPFAVSLVDSTSEKSQDILLSVENTVIYRIQALSLCSDQQSHLEFRVNRNNLELSTPLKIETISHEDLQRQLAVLDKAMKAKVATYLGGLPDVPFSATPVNAFYNGCMEVNINGVQLDLDEAISKHNDIRAHSCPSVWKKTKNS | – | only SAP was able to inhibit fibrocyte differentiation | – |
| CRP: purified human C-reactive protein (Calbiochem) (protein, UniProt P02741 19-224, looked up) C-reactive protein: QTDMSRKAFVFPKESDTSYVSLKAPLTKPLKAFTVCLHFYTELSSTRGYSIFSYATKRQDNEILIFWSKDIGYSFTVGGSEILFEVPEVTVAPVHICTSWESASGIVEFWVDGKPRVRKSLKKGYTVGAEASIILGQEQDSFGGNFEGSQSLVGDIGNVNMWDFVLSPDEINTIYLGGPFSPNVLNWRALKYEVQGEVFTKPQLWP | – | only SAP was able to inhibit fibrocyte differentiation | – |

Reference: patent publication US7935682B2, “Wound healing dressing for enhancing fibrocyte formation” (William Marsh Rice University, priority 2002, dated 2011)
